Experimental data taken from patent publication US8722014B2, “1 H-[1, 2, 3] triazole substituted amino acids and uses thereof” (Washington University, priority 2009, dated 2014).
Values joined by “and” are separate entries in the source; they are usually repeats but may differ in a detail not shown here. Equal entries are not always repeated. Where two headings read alike, the source gives them in different places.

Tests used:
[1] = system: intracranial 9L gliosarcoma tumor
Experimental: (§1) MicroPET imaging studies were performed in 2 rats implanted with subcutaneous 9L tumors and 1 rat implanted with an intracranial tumor. The subcutaneous implantations were performed as in the biodistribution studies except that the tumors were allowed to grow for 11 days prior to imaging. The intracranial tumor was implanted in the left midcerebrum using a template method as described previously in La Regina, M. C., et al., Lab. Anim. 34: 265-271, 2000, using a total of 5×10^4 cells suspended in 5 µL total volume. […] Computed axial tomography (CT) images were acquired with a MicroCAT II System (ImTek Inc., Knoxville, Tenn.), and PET data were acquired with MicroPET-FOCUS 120 and 220 scanners (Concorde MicroSystems Knoxville Tenn., USA) for 120 minutes after the intravenous tail vein injection of 0.24 to 0.31 mCi of (S)-[^18F]4. The PET and CT images were fused and analyzed using an Amira software package (Carlsbad Calif., USA), and time-activity curves were generated using ASIPro PET data analysis software (Concorde MicroSystems, Knoxville Tenn., USA).

[2] = system: subcutaneous 9L gliosarcoma tumor
Experimental: as §1

[3] = system: subcutaneous 9L gliosarcoma tumors
Experimental: Biodistribution studies were performed with both enantiomers, (R)-[^18F]4 and (S)-[^18F]4, using Fischer 344 rats (Charles River Laboratories, Wilmington Mass., USA) implanted with subcutaneous 9L gliosarcoma tumors. The tumors were implanted by subcutaneous injection of a suspension of approximately 1×10^69L gliosarcoma cells into the flanks of the rats. The tumors were allowed to grow for 3 weeks prior to the study. The rats were allowed food and water ad libitum prior to the biodistribution study. Anesthesia was achieved using a mixture of 1% isoflurane in oxygen, and the radiolabeled amino acid (R)-[^18F]4 or (S)-[^18F]4 was injected intravenously through a tail vein. The animals were euthanized in groups of four for each enantiomer at 5, 30 or 60 minutes after injection. The organs and tissues of interest and the tumors were dissected and weighed, and the amounts of activity were measured and decay corrected to the time of injection with a gamma counter. Standards for the doses were also measured with a gamma counter, and the data were normalized as the percent of total dose per gram of tissue (% ID/g) for each sample. The data were analyzed using GraphPad Prism software with 1-way ANOVAs for each enantiomer at each time point with Bonferroni post-tests. The tumor and brain uptake of radioactivity was directly compared for both enantiomers at each time point with a 2-way ANOVA with Bonferroni post-test. p-values less than or equal to 0.05 were considered statistically significant.

[4] = post injection, intracranial tumor
[5] = post injection, subcutaneous tumor

Cl.N[C@@H](Cc1cn(CC[18F])nn1)C(=O)O [(S)-[^18F]4, (S)-2-amino-3-[1-(2-fluoroethyl)-1H-[1,2,3]triazol-4-yl]propanoic acid hydrochloride salt-[^18F]]
maximal tumor to brain ratio ([1]; MicroPET study): approximately 9
time of peak uptake in adjacent normal tissues ([1]; brain, post injection): ≤ 5 min
maximal standard uptake value (SUV) ([1]; intracranial tumor): 1.1
time of maximal tumor uptake [1, 4]: 27.5 min
time of near maximal tumor uptake [1, 4]: approximately 20 min
tumor to bone (spinal column) ratio ([2]; 30 min, MicroPET): 2.5
tumor to paraspinal muscle uptake ratio ([2]; 30 min, MicroPET): approximately 5.0
time of peak uptake in adjacent normal tissues ([2]; paraspinal muscle and spinal column, post injection): ≤ 5 min
time of maximal tumor uptake [2, 5]: 32.5 min
time of near maximal tumor uptake [2, 5]: approximately 20 min
maximal standard uptake value (SUV) ([2]; subcutaneous 9L tumor): 1.6
biodistribution: blood ([3]; 5 min after i.v. injection): 0.98 ± 0.152 % ID/g
biodistribution: bone ([3]; 5 min after i.v. injection): 0.47 ± 0.065 % ID/g
biodistribution: brain ([3]; 5 min after i.v. injection): 0.08 ± 0.011 % ID/g
biodistribution: fat ([3]; 5 min after i.v. injection): 0.09 ± 0.020 % ID/g
biodistribution: heart ([3]; 5 min after i.v. injection): 0.43 ± 0.048 % ID/g
biodistribution: kidney ([3]; 5 min after i.v. injection): 11.02 ± 1.224 % ID/g
biodistribution: large intestine ([3]; 5 min after i.v. injection): 0.14 ± 0.012 % ID/g
biodistribution: liver ([3]; 5 min after i.v. injection): 0.34 ± 0.035 % ID/g
biodistribution: lung ([3]; 5 min after i.v. injection): 0.87 ± 0.117 % ID/g
biodistribution: muscle ([3]; 5 min after i.v. injection): 0.18 ± 0.030 % ID/g
biodistribution: pancreas ([3]; 5 min after i.v. injection): 2.75 ± 0.634 % ID/g
biodistribution: salivary gland ([3]; 5 min after i.v. injection): 0.74 ± 0.043 % ID/g
biodistribution: small intestine ([3]; 5 min after i.v. injection): 0.69 ± 0.076 % ID/g
biodistribution: spleen ([3]; 5 min after i.v. injection): 0.72 ± 0.054 % ID/g
biodistribution: testes ([3]; 5 min after i.v. injection): 0.21 ± 0.013 % ID/g
biodistribution: thyroid ([3]; 5 min after i.v. injection): 0.71 ± 0.117% of total dose per organ
biodistribution: tumor ([3]; 5 min after i.v. injection): 0.47 ± 0.069 % ID/g
tumor:brain ratio ([3]; 5 min after i.v. injection): 5.9
tumor bone (femur) ratio ([3]; 30 min, biodistribution study): 2.3
tumor to muscle ratio ([3]; 30 min, biodistribution study): 4.7
biodistribution: blood ([3]; 30 min after i.v. injection): 0.47 ± 0.101 % ID/g
biodistribution: bone ([3]; 30 min after i.v. injection): 0.36 ± 0.068 % ID/g
biodistribution: brain ([3]; 30 min after i.v. injection): 0.06 ± 0.008 % ID/g
biodistribution: fat ([3]; 30 min after i.v. injection): 0.05 ± 0.010 % ID/g
biodistribution: heart ([3]; 30 min after i.v. injection): 0.38 ± 0.066 % ID/g
biodistribution: kidney ([3]; 30 min after i.v. injection): 11.41 ± 1.939 % ID/g
biodistribution: large intestine ([3]; 30 min after i.v. injection): 0.15 ± 0.028 % ID/g
biodistribution: liver ([3]; 30 min after i.v. injection): 0.43 ± 0.091 % ID/g
biodistribution: lung ([3]; 30 min after i.v. injection): 0.83 ± 0.179 % ID/g
biodistribution: muscle ([3]; 30 min after i.v. injection): 0.18 ± 0.037 % ID/g
biodistribution: pancreas ([3]; 30 min after i.v. injection): 2.20 ± 0.747 % ID/g
biodistribution: salivary gland ([3]; 30 min after i.v. injection): 0.66 ± 0.139 % ID/g
biodistribution: small intestine ([3]; 30 min after i.v. injection): 0.54 ± 0.073 % ID/g
biodistribution: spleen ([3]; 30 min after i.v. injection): 0.75 ± 0.123 % ID/g
biodistribution: testes ([3]; 30 min after i.v. injection): 0.17 ± 0.033 % ID/g
biodistribution: thyroid ([3]; 30 min after i.v. injection): 0.44 ± 0.102% of total dose per organ
biodistribution: tumor ([3]; 30 min after i.v. injection): 0.83 % ID/g and 0.83 ± 0.142 % ID/g
tumor:brain ratio ([3]; 30 min after i.v. injection): 14.6
tumor to lung ratio ([3]; 60 min): 1.3
tumor to spleen ratio ([3]; 60 min): 1.5
tumor to normal tissue ratios ([3]; 60 min, except in the lung and the spleen): at least 2
biodistribution: blood ([3]; 60 min after i.v. injection): 0.23 ± 0.015 % ID/g
biodistribution: bone ([3]; 60 min after i.v. injection): 0.23 ± 0.011 % ID/g
biodistribution: brain ([3]; 60 min after i.v. injection): 0.05 ± 0.001 % ID/g
biodistribution: fat ([3]; 60 min after i.v. injection): 0.04 ± 0.007 % ID/g
biodistribution: heart ([3]; 60 min after i.v. injection): 0.30 ± 0.011 % ID/g
biodistribution: kidney ([3]; 60 min after i.v. injection): 4.79 ± 0.378 % ID/g
biodistribution: large intestine ([3]; 60 min after i.v. injection): 0.10 ± 0.012 % ID/g
biodistribution: liver ([3]; 60 min after i.v. injection): 0.32 ± 0.021 % ID/g
biodistribution: lung ([3]; 60 min after i.v. injection): 0.56 ± 0.085 % ID/g
biodistribution: muscle ([3]; 60 min after i.v. injection): 0.16 ± 0.006 % ID/g
biodistribution: pancreas ([3]; 60 min after i.v. injection): 1.12 ± 0.151 % ID/g
biodistribution: salivary gland ([3]; 60 min after i.v. injection): 0.36 ± 0.037 % ID/g
biodistribution: small intestine ([3]; 60 min after i.v. injection): 0.31 ± 0.024 % ID/g
biodistribution: spleen ([3]; 60 min after i.v. injection): 0.47 ± 0.035 % ID/g
biodistribution: testes ([3]; 60 min after i.v. injection): 0.11 ± 0.006 % ID/g
biodistribution: thyroid ([3]; 60 min after i.v. injection): 0.30 ± 0.024% of total dose per organ
biodistribution: tumor ([3]; 60 min after i.v. injection): 0.72 ± 0.098 % ID/g
tumor:brain ratio ([3]; 60 min after i.v. injection): 15.2
magnitude of tumor uptake compared with the (R)-enantiomer ([3]; at all 3 time points, p<0.001): higher
maximal tumor to brain ratio ([3]; biodistribution study): 15
